Test results from patent US20260167632A1, “NICOTINAMIDE DERIVATIVES FOR USE IN TREATING DISORDERS ASSOCIATED WITH KCNK13 ACTIVITY” (Cerevance, Inc., priority 2022, published 2026).

The compounds below were run against T1, human KCNK13 (Homo sapiens, UniProt Q9HB14) (assay: KCNK13 antagonist activity, thallium flux FLIPR assay in HEK 293 cells stably expressing human KCNK13). Details: HEK 293 cells stably expressing human KCNK13, Tl+ sensitive dye, compound 15 min before thallium sulfate, ten point curves; read-out: hKCNK13 IC50.
T1 construct: expressed in transfected cells
T1 sequence (Q9HB14 1-408): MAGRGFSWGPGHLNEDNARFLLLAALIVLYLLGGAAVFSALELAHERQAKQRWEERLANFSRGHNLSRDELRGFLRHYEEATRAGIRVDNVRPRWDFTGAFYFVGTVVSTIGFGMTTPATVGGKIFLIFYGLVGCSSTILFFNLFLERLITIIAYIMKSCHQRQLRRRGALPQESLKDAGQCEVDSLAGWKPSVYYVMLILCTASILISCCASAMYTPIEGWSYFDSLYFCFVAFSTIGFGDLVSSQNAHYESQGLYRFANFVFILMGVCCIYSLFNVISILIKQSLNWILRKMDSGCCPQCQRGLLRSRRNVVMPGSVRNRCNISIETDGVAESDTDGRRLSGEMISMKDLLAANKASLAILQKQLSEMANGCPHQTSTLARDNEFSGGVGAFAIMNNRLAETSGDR
Format: cell-based
Experimental: 4. Biological Efficacy of Compounds of the Invention
KCNK13 antagonist activity was determined by measuring changes in intracellular Thallium (Tl^+) concentrations using a Tl^+ sensitive fluorescent dye. The changes in fluorescent signal were monitored by Fluorescent Imaging Plate Reader (FLIPR™) technology available from Molecular Devices, LLC, US. KCNK13 mediated increases in intracellular Tl^+ concentration were readily detected by addition of a thallium sulfate Stimulus. 24 hours prior to the assay, human embryonic kidney 293 cells (HEK 293 cells) stably expressing human KCNK13 were seeded in cell culture medium in PDL coated black, clear-bottom 384-well plates (commercially available from Corning Inc., 356663) and grown overnight at 37° C., […]. On the day of the assay, cell culture media was removed and cells were loaded with potassium dye (commercially sold by Molecular Devices, LLC, US, R8222) for 1 hour at room temperature in the dark. Test compounds (at 10 point half log concentration response curves from 100 µM) were added to cells for 15 minutes prior to the addition of thallium sulfate to all wells. The IC50 values were determined from ten point concentration response curves. Curves were generated using the average of two wells for each data point.

Row | Structure (SMILES) | IC50 [nM]
1 | CC(c1cccc(F)c1)N(C)C(=O)c1cc(F)cnc1OC(F)F (single isomer, unassigned) [Example 89, 2-(difluoromethoxy)-5-fluoro-N-(1-(3-fluorophenyl)ethyl)-N-methylnicotinamide] | ≤ 200
2 | COc1ncc(F)cc1C(=O)N(C)C(C)c1ccc(F)cc1F (single isomer, unassigned) [Example 69, N-(1-(2,4-difluorophenyl)ethyl)-5-fluoro-2-methoxy-N-methylnicotinamide] | ≤ 200
3 | COc1ncc(F)cc1C(=O)N(C)C1CCc2ccccc21 (single isomer, unassigned) [Example 17, N-(2,3-dihydro-1H-inden-1-yl)-5-fluoro-2-methoxy-N-methylnicotinamide] | ≤ 500
4 | COc1ncc(C)cc1S(=O)(=O)N1CCc2ccccc2C1 [Example 51, 2-((2-methoxy-5-methylpyridin-3-yl)sulfonyl)-1,2,3,4-tetrahydroisoquinoline] | ≤ 200
5 | COc1ncc(Cl)cc1C(=O)N(C)C1CCc2ccccc21 (single isomer, unassigned) [Example 22, 5-chloro-N-(2,3-dihydro-1H-inden-1-yl)-2-methoxy-N-methylnicotinamide] | ≤ 500
6 | COc1ncc(Cl)cc1C(=O)N(C)Cc1cccc(F)c1F [Example 40, 5-chloro-N-(2,3-difluorobenzyl)-2-methoxy-N-methylnicotinamide] | ≤ 200
7 | COc1ncccc1S(=O)(=O)N1CCOc2ccc(F)cc2C1 [Example 55, 7-fluoro-4-((2-methoxypyridin-3-yl)sulfonyl)-2,3,4,5-tetrahydrobenzo[f][1,4]oxazepine] | ≤ 500
8 | COc1ncc(Cl)cc1C(=O)N(C)C(C)c1cc(F)ccc1C#N (single isomer, unassigned) [Example 59, 5-chloro-N-(1-(2-cyano-5-fluorophenyl)ethyl)-2-methoxy-N-methylnicotinamide] | ≤ 500
9 | CCN(Cc1cccc(F)c1)S(=O)(=O)c1cc(F)cnc1OC(F)F [Example 109, 2-(difluoromethoxy)-N-ethyl-5-fluoro-N-(3-fluorobenzyl)pyridine-3-sulfonamide] | ≤ 1000
10 | COc1nc(C)ccc1C(=O)N(C)Cc1ccc(F)cc1F [Example 11, N-(2,4-difluorobenzyl)-2-methoxy-N,6-dimethylnicotinamide] | ≤ 1000
11 | CC(c1cccc(F)c1)N(C)C(=O)c1cc(F)cnc1OC(F)F (centres unmarked) [Example 83, 2-(difluoromethoxy)-5-fluoro-N-(1-(3-fluorophenyl)ethyl)-N-methylnicotinamide] | ≤ 100
12 | CN(C(=O)c1cc(F)cnc1OC(F)F)C1COc2ccccc21 (centres unmarked) [Example 85, 2-(difluoromethoxy)-N-(2,3-dihydrobenzofuran-3-yl)-5-fluoro-N-methylnicotinamide] | ≤ 200
13 | COc1ncc(Cl)cc1C(=O)N(C)C1COc2cc(F)ccc21 (single isomer, unassigned) [Example 45, 5-chloro-N-(6-fluoro-2,3-dihydrobenzofuran-3-yl)-2-methoxy-N-methylnicotinamide] | ≤ 5000
14 | COc1ncc(F)cc1C(=O)N(C)Cc1ccccc1F [Example 37, 5-fluoro-N-(2-fluorobenzyl)-2-methoxy-N-methylnicotinamide] | ≤ 200
15 | CN(Cc1cc(F)cc(F)c1)S(=O)(=O)c1cc(F)cnc1OC(F)F [Example 103, N-(3,5-difluorobenzyl)-2-(difluoromethoxy)-5-fluoro-N-methylpyridine-3-sulfonamide] | ≤ 200
16 | CN(C(=O)c1cc(F)cnc1OC(F)F)C1COc2cc(F)ccc21 (centres unmarked) [Example 74, 2-(difluoromethoxy)-5-fluoro-N-(6-fluoro-2,3-dihydrobenzofuran-3-yl)-N-methylnicotinamide] | ≤ 500
17 | CN(Cc1ccc(F)cc1F)C(=O)c1cc(Cl)cnc1OC(F)F [Example 100, 5-chloro-N-(2,4-difluorobenzyl)-2-(difluoromethoxy)-N-methylnicotinamide] | ≤ 100
18 | COc1ncc(F)cc1C(=O)N(C)C1CCc2ccc(F)cc21 (single isomer, unassigned) [Example 9, 5-fluoro-N-(6-fluoro-2,3-dihydro-1H-inden-1-yl)-2-methoxy-N-methylnicotinamide] | ≤ 1000
19 | COc1ncc(F)cc1C(=O)N(C)C(C)c1cc(F)ccc1C#N (single isomer, unassigned) [Example 62, N-(1-(2-cyano-5-fluorophenyl)ethyl)-5-fluoro-2-methoxy-N-methylnicotinamide] | ≤ 1000

Next, values leading:

Row | IC50 [nM] | Structure (SMILES)
20 | ≤ 200 | CN(Cc1cccc(OC(F)F)c1)C(=O)c1cc(Cl)cnc1OC(F)F [Example 98, 5-chloro-2-(difluoromethoxy)-N-(3-(difluoromethoxy)benzyl)-N-methylnicotinamide]
21 | ≤ 500 | COc1ncc(Cl)cc1C(=O)N(C)C1CCOc2ccccc21 (single isomer, unassigned) [Example 19, 5-chloro-N-(chroman-4-yl)-2-methoxy-N-methylnicotinamide]
22 | ≤ 200 | COc1ncc(Cl)cc1C(=O)N(C)Cc1ccc(F)cc1C#N [Example 58, 5-chloro-N-(2-cyano-4-fluorobenzyl)-2-methoxy-N-methylnicotinamide]
23 | ≤ 5000 | COc1ncc(F)cc1C(=O)N(C)C(C)c1ccc(F)cc1F (single isomer, unassigned) [Example 68, N-(1-(2,4-difluorophenyl)ethyl)-5-fluoro-2-methoxy-N-methylnicotinamide]
24 | ≤ 200 | COc1ncc(Cl)cc1C(=O)N(C)Cc1cc(F)cc(Cl)c1 [Example 44, 5-chloro-N-(3-chloro-5-fluorobenzyl)-2-methoxy-N-methylnicotinamide]
25 | ≤ 1000 | COc1ncc(F)cc1C(=O)N(C)C(C)c1ccc(F)cc1C#N (single isomer, unassigned) [Example 65, N-(1-(2-cyano-4-fluorophenyl)ethyl)-5-fluoro-2-methoxy-N-methylnicotinamide]
26 | ≤ 200 | COc1ncc(Cl)cc1C(=O)N(C)Cc1cc(F)cc(F)c1 [Example 41, 5-chloro-N-(3,5-difluorobenzyl)-2-methoxy-N-methylnicotinamide]
27 | ≤ 200 | CN(Cc1cc(F)cc(Cl)c1)C(=O)c1cc(Cl)cnc1OC(F)F [Example 79, 5-chloro-N-(3-chloro-5-fluorobenzyl)-2-(difluoromethoxy)-N-methylnicotinamide]
28 | ≤ 500 | CN(C(=O)c1cc(Cl)cnc1OC(F)F)C1COc2cc(F)ccc21 (centres unmarked) [Example 77, 5-chloro-2-(difluoromethoxy)-N-(6-fluoro-2,3-dihydrobenzofuran-3-yl)-N-methylnicotinamide]
29 | ≤ 500 | CCN(Cc1ccccc1F)C(=O)c1cc(Cl)cnc1OC [Example 48, 5-chloro-N-ethyl-N-(2-fluorobenzyl)-2-methoxynicotinamide]
30 | ≤ 100 | CC(c1cccc(F)c1)N(C)C(=O)c1cc(F)cnc1OC(F)F (single isomer, unassigned) [Example 88, 2-(difluoromethoxy)-5-fluoro-N-(1-(3-fluorophenyl)ethyl)-N-methylnicotinamide]
31 | ≤ 1000 | CN(Cc1cccc(OC(F)(F)F)c1)C(=O)c1cc(Cl)cnc1OC(F)F [Example 99, 5-chloro-2-(difluoromethoxy)-N-methyl-N-(3-(trifluoromethoxy)benzyl)nicotinamide]
32 | ≤ 500 | CN(Cc1cccc(F)c1)S(=O)(=O)c1cc(Cl)cnc1OC(F)F [Example 113, 5-chloro-2-(difluoromethoxy)-N-(3-fluorobenzyl)-N-methylpyridine-3-sulfonamide]
33 | ≤ 100 | CN(Cc1cccc(F)c1F)C(=O)c1cc(Cl)cnc1OC(F)F [Example 102, 5-chloro-N-(2,3-difluorobenzyl)-2-(difluoromethoxy)-N-methylnicotinamide]
34 | ≤ 500 | COc1ncc(F)cc1C(=O)N(C)C(C)c1ccccc1F (single isomer, unassigned) [Example 5, 5-fluoro-N-(1-(2-fluorophenyl)ethyl)-2-methoxy-N-methylnicotinamide]
35 | ≤ 200 | COc1ncc(C)cc1C(=O)N(C)Cc1ccc(F)cc1F [Example 72, N-(2,4-difluorobenzyl)-2-methoxy-N,5-dimethylnicotinamide]
36 | ≤ 500 | CN(Cc1cccc(C(F)(F)F)c1)C(=O)c1cc(Cl)cnc1OC(F)F [Example 82, 5-chloro-2-(difluoromethoxy)-N-methyl-N-(3-(trifluoromethyl)benzyl)nicotinamide]
37 | ≤ 100 | COc1ncc(Cl)cc1C(=O)N(C)Cc1ccccc1 [Example 1, N-benzyl-5-chloro-2-methoxy-N-methylnicotinamide]
38 | ≤ 500 | COc1ncc(F)cc1C(=O)N(C)C1COc2ccc(F)cc21 (centres unmarked) [Example 35, 5-fluoro-N-(5-fluoro-2,3-dihydrobenzofuran-3-yl)-2-methoxy-N-methylnicotinamide]
